Legend:
[1] = Cytotoxicity against mouse B16-F1 cells after 48 hrs by SRB assay; assay type: functional, cell-based; conditions: B16-F1, 48 h
[2] = tested on: A-375; assay: Cytotoxicity against human A375 cells after 48 hrs by SRB assay; assay type: functional, cell-based; conditions: A-375, 48 h
[3] = tested on: PC-3; assay: Cytotoxicity against human PC3 cells after 96 hrs by SRB assay; conditions: PC-3, 96 h
[4] = tested on: PPC-1; assay: Cytotoxicity against human PPC1 cells after 96 hrs by SRB assay
[5] = tested on: DU-145; assay: Cytotoxicity against human DU145 cells after 96 hrs by SRB assay; conditions: DU-145, 96 h
[6] = tested on: LNCaP; assay: Cytotoxicity against human LNCAP cells after 96 hrs by SRB assay
[7] = species: Bos taurus; assay: Inhibition of bovine brain tubulin assessed as blockade of microtubule polymerization
[8] = tested on: DU-145; assay: Cytotoxicity against human DU145 cells after 48 hrs by SRB assay; assay type: functional, cell-based; conditions: DU-145, 48 h

Compound | IC50 [1] [µM] | IC50 [2] [µM] | IC50 [3] [µM] | IC50 ([4]; Homo sapiens, PPC-1, 96 h) [µM] | IC50 [5] [µM] | IC50 ([6]; Homo sapiens, LNCaP, 96 h) [µM] | IC50 ([4]; ppc-1) [µM] | IC50 ([6]; lncap) [µM] | Activity [7] | IC50 [8] [µM]
COc1cc(C(=O)c2csc(-c3ccc(Br)cc3)n2)cc(OC)c1OC | 0.032 | 0.013 | 0.018 | 0.021 | 0.021 | 0.044 |  |  |  | 
COc1cc(NC(=O)[C@@H]2CSC(c3ccccc3)=N2)cc(OC)c1OC | 38.3 | 22.8 | > 20 | 5.3 | > 20 | > 20 |  |  |  | 
COc1cc(NC(=O)[C@@H]2CSC(c3ccccc3)N2)cc(OC)c1OC (mixture of isomers) | > 100 | > 100 | > 20 | > 20 | > 20 | > 20 |  |  |  | 
COc1cc(C(=O)c2csc(-c3ccccc3F)n2)cc(OC)c1OC | 0.027 | 0.03 | 0.082 | 0.052 | 0.114 | 0.053 |  |  |  | 
COc1cc(NC(=O)[C@H]2CSC(c3ccccc3)=N2)cc(OC)c1OC | 30.4 |  | 13.2 | 3.4 | > 20 | 16.8 |  |  |  | 
COc1cc(C(=O)c2csc(-c3ccncc3)n2)cc(OC)c1OC [listing 1 of 2 here] | > 100 | > 100 | > 20 | > 20 | > 20 | > 20 |  |  |  | 
COc1cc(C(=O)c2csc(-c3ncccn3)n2)cc(OC)c1OC |  | 4.1 | 2.66 | 1.19 | 2.81 | 2.37 |  |  |  | 
CCc1ccc(-c2nc(C(=O)c3cc(OC)c(OC)c(OC)c3)cs2)cc1 | 0.07 |  | 0.027 | 0.022 | 0.031 | 0.06 |  |  |  | 
COc1cc(C(=O)c2csc(-c3ccc(C)cc3)n2)cc(OC)c1OC | 0.021 | 0.011 | 0.005 | 0.006 | 0.007 |  |  |  |  | 
COc1cc(C(=O)c2csc(-c3cccc(F)c3)n2)cc(OC)c1OC | 0.287 | 0.304 | 0.024 | 0.021 | 0.035 | 0.011 |  |  |  | 
O=C(c1csc(-c2ccccc2)n1)c1ccccc1F | > 100 | > 100 | > 20 | > 20 | > 20 | > 20 |  |  |  | 
COc1ccc(C(=O)c2csc(-c3ccccc3)n2)cc1 | > 100 | > 100 | > 20 | > 20 | > 20 | > 20 |  |  |  | 
COc1cc(C(=O)c2csc(-c3cccs3)n2)cc(OC)c1OC | 0.038 | 0.02 |  | 0.013 | 0.022 | 0.009 |  |  |  | 
COC(=O)c1ccc(-c2nc(C(=O)c3cc(OC)c(OC)c(OC)c3)cs2)cc1 | > 100 | > 100 | > 20 | > 20 | > 20 | > 20 |  |  |  | 
COc1cc(C(=O)c2csc(-c3ccc(N)cc3)n2)cc(OC)c1OC | 0.029 | 0.011 | 0.012 | 0.015 | 0.02 | 0.013 |  |  |  | 
O=C(c1ccccn1)c1csc(-c2ccccc2)n1 | > 100 | > 100 | > 20 | > 20 | > 20 | > 20 |  |  |  | 
CC(=O)Nc1ccc(C2N[C@H](C(=O)Nc3ccc4c(c3)Cc3ccccc3-4)CS2)cc1 (mixture of isomers) |  |  | 2.1 | 1.6 | 1.9 | 3.5 |  |  |  | 
COc1cc(NC(=O)c2csc(-c3ccccc3)n2)cc(OC)c1OC | > 100 | > 100 | > 20 | > 20 | > 20 | > 20 |  |  |  | 

Compound | IC50 [1] [µM] | IC50 [2] [µM] | IC50 [3] [µM] | IC50 ([4]; Homo sapiens, PPC-1, 96 h) [µM] | IC50 [5] [µM] | IC50 ([6]; Homo sapiens, LNCaP, 96 h) [µM] | IC50 ([4]; ppc-1) [µM] | IC50 ([6]; lncap) [µM] | Activity [7] | IC50 [8] [µM]
COc1cc(C(=O)c2csc(-c3ccncc3)n2)cc(OC)c1OC [listing 2 of 2 here] |  |  |  |  |  |  | 18 | 16.6 |  | 
COc1ccc(C(=O)c2csc(-c3ccccc3)n2)cc1OC | > 100 | > 100 | > 20 | > 20 | > 20 | > 20 |  |  |  | 
CCCCCCCCCCCCCCCCNC(=O)[C@@H]1CSC(c2ccc(NC(C)=O)cc2)N1 (mixture of isomers) | 2.2 | 2.1 |  | 0.4 | 1.7 | 1 |  |  |  | 
COc1cc(C(=O)c2csc(-c3ccc([N+](=O)[O-])cc3)n2)cc(OC)c1OC |  |  | 0.056 | 0.034 | 0.095 | 0.039 |  |  |  | 
COc1ccccc1C(=O)c1csc(-c2ccccc2)n1 | 59.4 | 70.3 | > 20 | > 20 | > 20 | > 20 |  |  |  | 
CCCCCCCCCCCCCCCCC(=O)c1csc(-c2ccccc2)n1 | 18.6 | 16 | > 20 | > 20 | > 20 | > 20 |  |  |  | 
COc1cc(C(=O)c2csc(-c3ccccc3)n2)cc(OC)c1OC | 0.055 | 0.028 | 0.021 | 0.043 | 0.071 | 0.028 |  |  | Dose-dependent effect | 
COc1cc(OC)cc(C(=O)c2csc(-c3ccccc3)n2)c1 | 0.35 | 0.17 | 0.301 | 0.242 | 0.424 | 0.323 |  |  |  | 
O=C(c1cc(O)c(O)c(O)c1)c1csc(-c2ccccc2)n1 | > 100 | > 100 | > 20 | > 20 | > 20 | > 20 |  |  |  | 
COc1cc(C(=O)c2csc(-c3ccc(C(F)(F)F)cc3)n2)cc(OC)c1OC |  | 0.023 | 0.058 | 0.076 | 0.05 | 0.094 |  |  |  | 
COc1cc(NC(=O)[C@@H]2CSC(c3cc(OC)c(OC)c(OC)c3)N2)cc(OC)c1OC (mixture of isomers) | > 100 | > 100 | > 20 | > 20 | > 20 | > 20 |  |  |  | 
COc1cc(C(=O)c2csc(-c3ccc(F)cc3)n2)cc(OC)c1OC | 0.043 | 0.033 | 0.013 |  |  | 0.006 |  |  |  | 
COc1cc(C(=O)c2cscn2)cc(OC)c1OC | > 100 | > 100 | > 20 | > 20 | > 20 | > 20 |  |  |  | 
COc1ccc(-c2nc(C(=O)c3cc(OC)c(OC)c(OC)c3)cs2)cc1OC | 0.161 | 0.034 | 0.069 | 0.056 |  | 0.038 |  |  |  | 102
O=C(c1ccccc1)c1csc(-c2ccccc2)n1 | > 100 | > 100 | > 20 | > 20 | > 20 | > 20 |  |  |  | 
COc1cccc(C(=O)c2csc(-c3ccccc3)n2)c1 | > 100 | > 100 | > 20 | > 20 | > 20 | > 20 |  |  |  | 
COc1cc(C(=O)c2csc(-c3ccc(C#N)cc3)n2)cc(OC)c1OC |  | 0.059 | 0.03 | 0.019 | 0.052 | 0.015 |  |  |  | 
COc1cc(C(=O)c2csc(-c3ccc(C(=O)O)cc3)n2)cc(OC)c1OC | > 100 | > 100 | > 20 | > 20 | > 20 | > 20 |  |  |  | 

Reference: ChEMBL document CHEMBL1152784, “Discovery of 4-substituted methoxybenzoyl-aryl-thiazole as novel anticancer agents: synthesis, biological evaluation, and structure-activity relationships” (J Med Chem, 2009)
